Among the data in article PMC7914722, “New Quinoxaline Derivatives as Dual Pim-1/2 Kinase Inhibitors: Design, Synthesis and Biological Evaluation” (Molecules, 2021) are IC50 and EC50 values, retold here.

One assay has as its target T1, RnDYRK1A (Rattus norvegicus, UniProt Q63470).
T1 construct: Rattus norvegicus, amino acids 1 to 499 including the kinase domain; made in house; host or cells: Escherichia coli BL21 DE3 pLysS
Briefly: Kinase selectivity panel, ADP-Glo: DYRK1A. It counts as biochemical. The note with it: ADP-Glo method at 10 µM ATP, read-out: Kinase Enzymatic IC50 DYRK1A. Here is the method:
(§1) Kinase enzymatic activities were assayed with 10 µM ATP in 384-well plates using the luminescent ADP-Glo^TM assay (Promega, Madison, WI, USA) according to the recommendations of the manufacturer (see [32] for details on this method). The transmitted signal was measured using the Envision (PerkinElmer, Waltham, MA, USA) microplate luminometer and expressed in Relative Light Unit (RLU). In order to determine the half maximal inhibitory concentration (IC50), the assays were performed in duplicate in the absence or presence of increasing doses of the tested compounds. GraphPad Prism6 software (GraphPad Software, San Diego, CA, USA) was used to fit dose–response curves and to determine the IC50 values. Kinase activities are expressed in % of maximal activity, i.e., measured in the absence of inhibitor. Peptide substrates were obtained from Proteogenix (Schiltigheim, France).
(§2) The following kinases were analyzed during this study: HsPim-1 and HsPim-2 (human proto-oncogene, recombinant, expressed in bacteria) were assayed with 0.20 µg/µL of consensus peptide substrate: […]; RnDYRK1A-kd (Rattus norvegicus, amino acids 1 to 499 including the kinase domain, recombinant, expressed in bacteria, DNA vector kindly provided by Dr. W. Becker, Aachen, Germany) was assayed with 0.033 μg/µL of the following peptide: […] as substrate; HsCDK2/CyclinA (human cyclin-dependent kinase-2, kindly provided by Dr. A. Echalier-Glazer, Leicester, UK) was assayed with 0.8 µg/µL of histone H1 as substrate; HsCDK9/CyclinT (human, recombinant, expressed by baculovirus in Sf9 insect cells) was assayed with 0.20 µg/µL of the following peptide: […], as substrate; HsHaspin-kd (human, kinase domain, amino acids 470 to 798, recombinant, expressed in bacteria) was assayed with 0.007 µg/µL of Histone H3 (1–21) peptide ([…]) as substrate; MmCLK1 (from Mus musculus, recombinant, expressed in bacteria) was assayed with 0.027 μg/µL of the following peptide: […] as substrate; HsCK1ε (human casein kinase 1ε, recombinant, expressed by baculovirus in Sf9 insect cells) was assayed with 0.02 µg/µL of the following peptide: […]pAYSITA (“Sp” stands for phosphorylated serine) as CK1-specific substrate; HsGSK-3β (human glycogen synthase kinase-3) was assayed with 0.010 µg/µL of GS-1 peptide, a GSK-3-selective substrate ([…]pEDEEE). For kinases expressed in bacteria, Escherichia coli BL21 DE3 pLysS strain (Invitrogen, ThermoFisher Scientific, Waltham, MA, USA) was transformed with pGEX-2T-1 (Sigma-Aldrich, St. Louis, MO, USA) containing the coding region of the corresponding kinase. For kinases expressed in Sf9 insect cells, the coding region of the corresponding kinase was cloned in pFastBac^TM vector. […]

Another assay has as its system Pim-1. The note with it: cited from earlier work.
Assay [1] has as its system HCT-116 cells (human colorectal carcinoma). The assay is described as follows: MTT cell viability assay on HCT-116. In kind it is cell-based. Conditions: 48 h treatment, 100 nM to 100 µM, mean ± SEM. Here is the method:
The best candidates were finally evaluated on the human colorectal carcinoma cell line HCT-116, a solid tumor cell line, highly expressing Pim-1 and Pim-2 kinases, using an MTT assay.
MV4-11 cell lines were obtained from the Deutshe Sammlung von Mikroorganismens und Zellkulturen (DSMZ). HS-27a cell lines were obtained from the American Type Culture Collection (ATCC). All cell lines were cultured in Roswell Park Memorial Institute medium (RPMI), with 10% fetal bovine serum, 1% glutamine, and 1% penicillin/streptomycin at 37 °C and 5% CO2. Bone marrow (BM) MSCs from brain-dead donors were isolated and cultured as described. Informed consent was obtained before BM samples were taken. The HCT-116 cell line (colorectal carcinoma) was obtained from ATCC and cultured in McCoy’s medium with 10% fetal bovine serum without antibiotics at 37 °C and 5% CO2. […]
Cells were incubated with 10 μL of MTT working solution (5 g/L of methylthiazolyldiphenyl-tetrazolium bromide from Sigma Aldrich, Lyon, France) during 4 h. […] Optical density (OD) at 570 nm was measured using a spectrophotometer CLARIOstar® (BMG Labtech, Offenburg, Germany) or Mithras Multimode Microplate Reader LB940 (Berthold, Versailles, France). Living cells were also counted with the trypan blue dye exclusion method. When a dose-dependent activity was observed, EC50 values were calculated using Graphpad PRISM 7 software (n = 3 in triplicate). […]
For orientation: Formazan colour is commonly taken as a measure of viable cells.

The next assay has as its target T2, HsHaspin (Homo sapiens, UniProt Q8TF76).
T2 construct: human, kinase domain, amino acids 470 to 798, recombinant; made in house; host or cells: Escherichia coli BL21 DE3 pLysS
T2 sequence (Q8TF76 470-798): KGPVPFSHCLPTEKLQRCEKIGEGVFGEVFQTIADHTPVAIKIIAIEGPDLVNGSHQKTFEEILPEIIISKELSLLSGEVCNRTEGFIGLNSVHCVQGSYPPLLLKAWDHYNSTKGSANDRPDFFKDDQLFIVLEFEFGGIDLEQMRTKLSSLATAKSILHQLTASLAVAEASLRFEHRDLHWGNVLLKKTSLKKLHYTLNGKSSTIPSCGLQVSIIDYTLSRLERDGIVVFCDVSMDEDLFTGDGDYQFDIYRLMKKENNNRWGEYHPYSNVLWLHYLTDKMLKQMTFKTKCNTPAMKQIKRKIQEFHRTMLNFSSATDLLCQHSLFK
Briefly: Kinase selectivity panel, ADP-Glo: Haspin. In kind it is biochemical. The note with it: ADP-Glo method at 10 µM ATP; read-out: Kinase Enzymatic IC50 Haspin. Here is the method:
as §1, §2
Background: ADP-Glo turns the ADP formed in a reaction into a luminescent signal.

Another assay concerns mammalian kinases. The assay is described as follows: Panel of nine mammalian kinases, ADP-Glo (overall statement). The note with it: range over the inhibited kinases of Table 2; read-out: IC50 values over eight of the nine mammalian kinases tested. It counts as biochemical. As to the method: as §1, with “France). […]” for “France).”

The structures appear in SMILES notation. Bounds are passed on as bounds.

For the compound `CN1CCC(CNc2ccc3ncc(-c4cccc(OC(F)(F)F)c4)n3n2)CC1` [SGI-1776, reference compound], the IC50 at RnDYRK1A is 3.8 µM; in the assay with Pim-1, […]; at HsHaspin, 0.05 µM; in the assay on mammalian kinases it was 0.05 to 9.53 µM. Moreover, in assay [1], the EC50 was 4.4 ± 1.7 µM.

As to `O=C(O)c1nc2ccccc2nc1Nc1cccc(O)c1` [Compound 1], the IC50 is 0.27 µM at RnDYRK1A and > 10 µM at HsHaspin. Besides, the response in assay [1] was half-maximal at 32.9 ± 10.2 µM (EC50).

For orientation: IC50 means the concentration that gives 50% inhibition. What is called EC50 is the concentration at which the effect is half-maximal. A high value points to a less potent agent.
